How the values were obtained:
[1] = system: Walker 256 tumor-bearing rats; settings: cited from earlier work
[2] = system: μ-opioid receptor expression; settings: spinal cord and dorsal root ganglia (DRG); cited from earlier work
keratinocytes = settings: cited from earlier work
[3] = system: preclinical inflammatory, postoperative, and neuropathic pain; settings: dose- and time-dependent; cited from earlier work
[4] = system: morphine analgesia and antinociceptive tolerance; settings: rats, with morphine; cited from earlier work
[5] = system: formalin model of inflammatory pain; settings: coadministration; cited from earlier work
mouse CB2 receptors = target: T1, mouse CB2 receptors (Mus musculus, UniProt P47936); experiment: Forskolin-stimulated cAMP accumulation (cyclase), HEK mCB2; assay type: cell-based
T1 construct: expressed in transfected cells
T1 sequence (P47936 whole entry): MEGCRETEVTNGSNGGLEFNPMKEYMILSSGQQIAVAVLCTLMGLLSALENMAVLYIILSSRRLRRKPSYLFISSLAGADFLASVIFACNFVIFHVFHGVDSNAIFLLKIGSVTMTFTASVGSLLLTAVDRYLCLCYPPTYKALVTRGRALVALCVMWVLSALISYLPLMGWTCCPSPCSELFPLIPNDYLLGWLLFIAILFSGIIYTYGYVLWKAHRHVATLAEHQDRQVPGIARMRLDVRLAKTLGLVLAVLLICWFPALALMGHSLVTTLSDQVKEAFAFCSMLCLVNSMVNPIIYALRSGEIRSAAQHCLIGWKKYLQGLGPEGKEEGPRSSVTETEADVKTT

[6] = system: paclitaxel-induced mechanical allodynia; experiment: Paclitaxel-induced mechanical allodynia (electronic von Frey); assay type: in vivo, mouse
Procedure: (§1) In all studies, the experimenter was blinded to the treatment condition, and mice were randomly assigned to experimental conditions. Paclitaxel (4 mg/kg i.p.) was administered four times on alternate days (cumulative dose, 16 mg/kg i.p.) to induce neuropathic pain as described previously by our group (Deng et al., 2015). Control mice received an equal volume of cremophor-vehicle. Development of paclitaxel-induced allodynia was assessed on day 0, 4, 7, 11, and 14.
(§2) Effects of pharmacologic manipulations were assessed at 30 minutes after drug administration during the maintenance phase of paclitaxel-induced neuropathy (i.e., beginning day 18-20 after initial paclitaxel injection).
(§3) In experiments 2 and 3, pharmacologic manipulations were performed once daily for 12 consecutive days in each of the two phases of chronic treatment. Four days separated phase 1 and phase 2 chronic dosing in all studies comprising two phases of chronic dosing. Experiments 2 and 3 were performed concurrently using overlapping cohorts that were tested with a single vehicle (phase 1), vehicle (phase 2) group.
(§4) We then assessed the antiallodynic efficacy of chronic systemic administration of vehicle or morphine (10 mg/kg per day i.p.×12 days) administered during phase 2 in the same animals. Responsiveness to mechanical and cold stimulation was evaluated on treatment days 1, 4, 8, and 12 during phase 1 and on treatment days 16, 19, 23, and 27 during phase 2 (i.e., phase 2 started on day 16).
(§5) In experiment 4, we evaluated the impact of coadministration of morphine (10 mg/kg i.p.×12 days) with a submaximal dose of LY 2828360 (0.1 mg/kg per day i.p.×12 days) in WT and CB2 KO mice.
Paw withdrawal thresholds (grams) to mechanical stimulation were measured in duplicate for each paw using an electronic von Frey anesthesiometer supplied with a 90-g probe (model Alemo 2390-5; IITC, Woodland Hills, Calif.) as described previously. Mice were placed on an elevated metal mesh table and allowed to habituate under individual, inverted plastic cages to the testing platform for at least 20 minutes until exploratory behavior had ceased. Alter the habituation period, a force was applied to the midplantar region of the hind paw with a semiflexible tip connected to the anesthesiometer. Mechanical stimulation was terminated when the animal withdrew its paw, and the value of the applied force was recorded in grams. Mechanical paw withdrawal thresholds were obtained in duplicate for each paw and are reported as the mean of duplicate determinations from each animal, averaged across animals, for each group.

[7] = system: paclitaxel-induced cold allodynia; experiment: Paclitaxel-induced cold allodynia (acetone); assay type: in vivo, mouse
Procedure: as §1, §2, §3, §4, §5
Response time (seconds) spent attending to (i.e., elevating, licking, biting, or shaking) the paw stimulated with acetone (Sigma-Aldrich) was measured in triplicate for each paw to assess cold allodynia as previously published. An acetone bubble (approximately 5 to 6 p.1) formed at the end of a blunt 1-ml syringe hub was gently applied to the plantar surface of the hind paw. Care was taken not to apply mechanical stimulation to the hind paw with the syringe itself. The total time the animal spent attending to the acetone-stimulated paw (i.e., elevation, shaking, or licking) was recorded over 1 minute after acetone application. Acetone was applied three times to each paw with a 3-minute interval between applications. Values for each animal were calculated as the mean of six determinations of acetone responsiveness derived from each mouse.

[8] = system: naloxone-precipitated opioid withdrawal; experiment: Naloxone-precipitated opioid withdrawal in paclitaxel-treated mice; assay type: in vivo, mouse; settings: paclitaxel-treated WT mice
Procedure: Alter the last injection of morphine (on day 28 for two-phase treatments, on day 13 for coadministration treatment), we challenged WT or CB2KO mice from experiments 2, 3, and 4 with vehicle, followed 30 minutes later by naloxone (5 mg/kg i.p.) to precipitate opioid receptor-mediated withdrawal. Mice were video-recorded for subsequent scoring of withdrawal-like behaviors for a 30-minute interval after challenge with vehicle or naloxone.
Mice were video-taped, and the number of jumps was scored in 5-minute intervals for a total observation period of 30 minutes after challenge with either saline or naloxone (5 mg/kg i.p.).

[9] = system: paclitaxel-induced neuropathic pain; settings: 8 days once daily (i.p.) dosing or chronic infusion over 4 weeks; cited from earlier work
human CB2 = human CB2 (Homo sapiens, UniProt P34972); experiment: Forskolin-stimulated cAMP accumulation (cyclase), HEK hCB2; assay type: cell-based; parameters: expressed in transfected cells
human CB2, sequence (P34972 whole entry): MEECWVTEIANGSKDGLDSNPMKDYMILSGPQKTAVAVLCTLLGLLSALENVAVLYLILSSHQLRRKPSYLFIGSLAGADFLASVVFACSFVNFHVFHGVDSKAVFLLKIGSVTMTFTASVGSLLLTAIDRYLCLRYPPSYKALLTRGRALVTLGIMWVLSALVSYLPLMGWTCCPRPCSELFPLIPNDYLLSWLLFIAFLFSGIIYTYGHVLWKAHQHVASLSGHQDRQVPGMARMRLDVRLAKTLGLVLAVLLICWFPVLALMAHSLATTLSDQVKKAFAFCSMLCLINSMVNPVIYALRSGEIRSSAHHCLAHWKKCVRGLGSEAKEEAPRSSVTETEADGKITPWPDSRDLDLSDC

[10] = WT mice, 5 mg/kg per day i.p.×12 days
[11] = WT mice, AM1710 5 mg/kg per day×12 days phase I, morphine 10 mg/kg per day×12 days phase II
[12] = paclitaxel-treated WT mice, 5 mg/kg per day i.p.×12 days, vs vehicle

Question: Which morphine tolerance ([1]; low dose coadministered with morphine) does the source give for `CN1CCCCC1Cn1cc(C(=O)c2cc([N+](=O)[O-])ccc2I)c2ccccc21` (centres unmarked) [AM1241] here?
Answer: reduced the morphine tolerance

Question: What about the “opioid-mediated antinociception, hotplate and mechanical sensitivity” value ([1]; tumor-bearing rats) of the same compound?
Answer: modest enhancement of opioid-mediated antinociception

Question: What about the μ-opioid receptor expression [2] of the same compound?
Answer: upregulated μ-opioid receptor expression

Question: What about the “release of β-endorphin” value (keratinocytes) of the same compound?
Answer: stimulated the release of the endogenous opioid β-endorphin

Question: Which results are given for `CCCn1c(C)c(C(=O)c2cccc3ccccc23)c2ccccc21` [JWH015]?
Answer: pain inhibition on coadministration with morphine [3]: synergistically inhibited preclinical inflammatory, postoperative, and neuropathic pain; morphine analgesia and morphine antinociceptive tolerance [4]: increased morphine analgesia and morphine antinociceptive tolerance

Question: For `CCCC(C)(C)c1ccc2c(c1)OC(C)(C)[C@@H]1CC=C(C)C[C@@H]21` [JWH133], which opioid-sparing effects [5] is on record?
Answer: exhibited opioid-sparing effects

Question: With `CCCCCCC(C)(C)c1cc(O)c2c(c1)oc(=O)c1ccc(OC)cc12` [AM1710, 3-(1,1-dimethyl-heptyl)-1-hydroxy-9-methoxy-benzo(c) chromen-6-one] as the compound, how does the “time by which inhibition of forskolin-stimulated cAMP dissipated” value (mouse CB2 receptors; HEK mCB2, 1 μM) read?
Answer: ≤ 15 min

Question: And the “forskolin-induced cAMP levels” value (mouse CB2 receptors; HEK mCB2, 1 μM final concentration, 5 minutes)?
Answer: attenuated forskolin-induced cAMP levels

Question: What about the “cAMP levels in the absence of forskolin” value (mouse CB2 receptors; HEK mCB2, compound alone) of the same compound?
Answer: alone did not change cAMP levels

Question: What about the “cAMP levels in the absence of forskolin at 10 minutes” value (mouse CB2 receptors; HEK mCB2, compound alone, 10 minutes) of the same compound?
Answer: decreased cAMP levels below the basal/no forskolin level

Question: What about the “forskolin-stimulated cAMP after PTX treatment” value (mouse CB2 receptors; mCB2, 1 μM, PTX 300 ng/ml overnight) of the same compound?
Answer: abolished the decrease in forskolin-stimulated cAMP

Question: What about the “tolerance to antiallodynic effects over repeated administration, mechanical” value [6, 10] of the same compound?
Answer: tolerance did not develop

Question: And the “development of tolerance to phase II morphine, mechanical” value [6, 11]?
Answer: delayed the development of tolerance to morphine

Question: What about the “mechanical paw withdrawal thresholds, chronic phase I treatment” value [6, 12] of the same compound?
Answer: increased mechanical paw withdrawal thresholds

Question: And the “tolerance to antiallodynic effects over repeated administration, cold” value [7, 10]?
Answer: tolerance did not develop

Question: What about the “development of tolerance to phase II morphine, cold” value [7, 11] of the same compound?
Answer: delayed the development of tolerance to morphine

Question: And the “cold response time, chronic phase I treatment” value [7, 12]?
Answer: reduced the heightened cold response time

Question: And the “naloxone-precipitated jumps, AM1710 (I)-morphine (II) vs vehicle (I)-vehicle (II)” value [8]?
Answer: did not differ

Question: What about the “number of naloxone-precipitated jumps, AM1710 (I)-morphine (II) vs vehicle (I)-morphine (II)” value ([8]; AM1710 5 mg/kg i.p.×12 days, morphine 10 mg/kg i.p.×12 days) of the same compound?
Answer: lower

Question: What about the “paclitaxel-induced neuropathic pain, tolerance and physical dependence” value [9] of the same compound?
Answer: suppresses paclitaxel-induced neuropathic pain without producing tolerance or physical dependence

Question: What about the “cAMP levels, compound alone (no forskolin)” value (human CB2; HEK hCB2) of the same compound?
Answer: alone did not change the cAMP levels

Question: What about the “duration of decrease in cAMP” value (human CB2; HEK hCB2) of the same compound?
Answer: up to 30 minutes

Question: What about the “inhibition of forskolin-induced cAMP levels, time course” value (human CB2; HEK hCB2, 1 μM final concentration) of the same compound?
Answer: induced a delayed and persistent inhibition of forskolin-stimulated cAMP levels, starting at 10 minutes

Question: What about the “inhibition of forskolin-stimulated cAMP after PTX pretreatment” value (human CB2; HEK hCB2, 1 μM final concentration, PTX) of the same compound?
Answer: blocked the inhibition of forskolin-stimulated cAMP

Question: What about the “cAMP levels vs forskolin alone in PTX-treated cells” value (human CB2; HEK hCB2, with forskolin, 5 minutes, PTX) of the same compound?
Answer: increased cAMP levels compared with forskolin alone
